What was measured:
MET (D1246H) Mutant = MET (D1246H) Mutant (Homo sapiens, UniProt P08581, D1228H); experiment: Mutant MET kinase biochemical assay, D1246H; settings: for Fold potency decrease versus Example 1, MET (D1246H) Mutant: relative to Example 1 = 1; for Fold potency decrease versus Example 2, MET (D1246H) Mutant: relative to Example 2 = 1
MET (Y1248H) Mutant = MET (Y1248H) Mutant (Homo sapiens, UniProt P08581, Y1230H); experiment: Mutant MET kinase biochemical assay, Y1248H; settings: for Fold potency decrease versus Example 1, MET (Y1248H) Mutant: relative to Example 1 = 1; for Fold potency decrease versus Example 2, MET (Y1248H) Mutant: relative to Example 2 = 1
[1] = biological target: T1, Phospho-MET in EBC-1 cells (Homo sapiens, UniProt P08581); experiment: EBC-1 Phospho-MET ELISA; type: cell-based
T1 construct: host or cells: EBC-1
Experimental: (§1) EBC-1 cells (catalog #JCRB0820) were obtained from the Japan Health Science Research Resources Bank, Osaka, Japan. Briefly, cells were grown in DMEM supplemented with 10% characterized fetal bovine serum (Invitrogen, Carlsbad, Calif.) at 37° C., 5% CO2, 95% humidity. Cells were allowed to expand until reaching 70-95% confluency at which point they were subcultured or harvested for assay use.
Fifteen thousand cells in DMEM supplemented with 0.5% characterized fetal bovine serum (FBS; Invitrogen, Carlsbad, Calif.) were added per well in a 96-well black clear bottom plate (Corning, Corning, N.Y.). Cells were then incubated overnight at 37 degrees Celsius, 5% CO2, 95% humidity. A serial dilution of test compound was dispensed into another 96-well black clear bottom plate (Corning, Corning, N.Y.) containing DMEM supplemented with 0.5% FBS. Diluted compound was then added to plates containing cells and incubated for 6 hours at 37 degrees Celsius, 5% CO2, 95% humidity. Cells were stimulated with 40 ng/mL HGF (R&D Systems, Minneapolis, Minn.) for 10 minutes, and then lysed. Phospho-MET in cell lysates was detected using the DuoSet IC Human Phospho-HGF R/c-MET ELISA (R&D Systems, Minneapolis, Minn.). Data was analyzed using Prism software (Graphpad, San Diego, Calif.) to calculate IC50 values.

[2] = biological target: T2, c-MET kinase (Seq. ID No. 2), cMET WT (Homo sapiens, UniProt P08581); experiment: c-MET kinase assay (WT MET biochemical assay); settings: for Fold potency decrease versus Example 1, cMET WT: relative to Example 1 = 1; for Fold potency decrease versus Example 2, cMET WT: relative to Example 2 = 1
T2 construct: c-MET (c-MET residues: 956-1390, from Invitrogen, catalogue #PV3143, 6 nM); purchased Invitrogen PV3143
Experimental: Activity of c-MET kinase (Seq. ID No. 2) was determined by following the production of ADP from the kinase reaction through coupling with the pyruvate kinase/lactate dehydrogenase system (e.g., Schindler et al. Science 2000, 289, pp. 1938-1942). In this assay, the oxidation of NADH (thus the decrease at A340 nm) was continuously monitored spectrophotometrically. The reaction mixture (100 μl) contained c-MET (c-MET residues: 956-1390, from Invitrogen, catalogue #PV3143, 6 nM), polyE4Y (1 mg/mL), MgCl2 (10 mM), pyruvate kinase (4 units), lactate dehydrogenase (0.7 units), phosphoenol pyruvate (1 mM), and NADH (0.28 mM) in 90 mM Tris buffer containing 0.25 mM DTT, 0.2% octyl-glucoside and 1% DMSO, pH 7.5. Test compounds were incubated with c-MET (Seq. ID No. 2) and other reaction reagents at 22° C. for 0.5 h before ATP (100 μM) was added to start the reaction. The absorption at 340 nm was monitored continuously for 2 hours at 30° C. on Polarstar Optima plate reader (BMG). The reaction rate was calculated using the 1.0 to 2.0 h time frame. Percent inhibition was obtained by comparison of reaction rate with that of a control (i.e., with no test compound). IC50 values were calculated from a series of percent inhibition values determined at a range of inhibitor concentrations using software routines as implemented in the GraphPad Prism software package.

MET (Y1248C) Mutant = MET (Y1248C) Mutant (Homo sapiens, UniProt P08581, Y1230C); experiment: Mutant MET kinase biochemical assay, Y1248C; settings: for Fold potency decrease versus Example 1, MET (Y1248C) Mutant: relative to Example 1 = 1; for Fold potency decrease versus Example 2, MET (Y1248C) Mutant: relative to Example 2 = 1
[3] = biological target: T3, Phospho-MET in MKN-45 cells (Homo sapiens, UniProt P08581); experiment: MKN-45 Phospho-MET ELISA; type: cell-based
T3 construct: host or cells: MKN-45
Experimental: as §1, with “MKN-45” for “EBC-1”, “#JCRB0254)” for “#JCRB0820)”, “RPMI 1640 media” for “DMEM”
Twenty-five thousand cells in RPMI-1640 supplemented with 10% characterized fetal bovine serum (Invitrogen, Carlsbad, Calif.) were added per well in a 96-well black clear bottom plate (Corning, Corning, N.Y.). Cells were then incubated overnight at 37 degrees Celsius, 5% CO2, 95% humidity. Media was then aspirated and cells were washed with PBS. A serial dilution of test compound was dispensed into another 96-well black clear bottom plate (Corning, Corning, N.Y.) containing serum-free RPMI-1640. Compound was added to plates containing cells and incubated for 6 hours at 37 degrees Celsius, 5% CO2, 95% humidity. Cells were stimulated with 40 ng/mL HGF (R&D Systems, Minneapolis, Minn.) for 10 minutes, and then lysed. Phospho-MET in cell lysates was detected using the DuoSet IC Human Phospho-HGF R/c-MET ELISA (R&D Systems, Minneapolis, Minn.). Data was analyzed using Prism software (Graphpad, San Diego, Calif.) to calculate IC50 values.

A549 cells = experiment: A549 HGF-stimulated MET-dependent cell migration assay; type: cell-based
MET (D1246N) Mutant = MET (D1246N) Mutant (Homo sapiens, UniProt P08581, D1228N); experiment: Mutant MET kinase biochemical assay, D1246N; settings: for Fold potency decrease versus Example 1, MET (D1246N) Mutant: relative to Example 1 = 1; for Fold potency decrease versus Example 2, MET (D1246N) Mutant: relative to Example 2 = 1
[4] = test system: oncogenic Mutant MET kinase; experiment: various oncogenic Mutant MET kinase biochemical assays (summarised); settings: range over columns 3-6; for Fold less potent than Example 1 in the various oncogenic Mutant MET kinase biochemical assays: relative to Example 1; for Fold less potent than Example 2 in the various oncogenic Mutant MET kinase biochemical assays: relative to Example 2
[5] = relative to Example 1 = 1, listed as the '229 Compound
[6] = relative to Example 2 = 1, listed as the '229 Compound

T2 sequence (P08581 with tags, fused parts or gaps): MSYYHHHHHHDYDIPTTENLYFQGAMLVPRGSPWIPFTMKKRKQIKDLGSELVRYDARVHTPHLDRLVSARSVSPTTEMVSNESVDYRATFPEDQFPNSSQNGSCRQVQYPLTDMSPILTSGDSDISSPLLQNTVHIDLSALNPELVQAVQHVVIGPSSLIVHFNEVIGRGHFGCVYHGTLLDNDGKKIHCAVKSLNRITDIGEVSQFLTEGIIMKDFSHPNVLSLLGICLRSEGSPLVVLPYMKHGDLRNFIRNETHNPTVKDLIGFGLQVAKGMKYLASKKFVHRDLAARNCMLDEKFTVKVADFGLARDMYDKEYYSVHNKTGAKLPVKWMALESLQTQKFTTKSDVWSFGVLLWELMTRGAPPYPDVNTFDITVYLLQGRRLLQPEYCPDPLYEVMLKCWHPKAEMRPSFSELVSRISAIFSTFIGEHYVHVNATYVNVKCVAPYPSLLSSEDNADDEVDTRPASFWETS
MET (D1246H) Mutant, sequence (P08581 25-1408 isoform P08581-2 D1246H limits assumed): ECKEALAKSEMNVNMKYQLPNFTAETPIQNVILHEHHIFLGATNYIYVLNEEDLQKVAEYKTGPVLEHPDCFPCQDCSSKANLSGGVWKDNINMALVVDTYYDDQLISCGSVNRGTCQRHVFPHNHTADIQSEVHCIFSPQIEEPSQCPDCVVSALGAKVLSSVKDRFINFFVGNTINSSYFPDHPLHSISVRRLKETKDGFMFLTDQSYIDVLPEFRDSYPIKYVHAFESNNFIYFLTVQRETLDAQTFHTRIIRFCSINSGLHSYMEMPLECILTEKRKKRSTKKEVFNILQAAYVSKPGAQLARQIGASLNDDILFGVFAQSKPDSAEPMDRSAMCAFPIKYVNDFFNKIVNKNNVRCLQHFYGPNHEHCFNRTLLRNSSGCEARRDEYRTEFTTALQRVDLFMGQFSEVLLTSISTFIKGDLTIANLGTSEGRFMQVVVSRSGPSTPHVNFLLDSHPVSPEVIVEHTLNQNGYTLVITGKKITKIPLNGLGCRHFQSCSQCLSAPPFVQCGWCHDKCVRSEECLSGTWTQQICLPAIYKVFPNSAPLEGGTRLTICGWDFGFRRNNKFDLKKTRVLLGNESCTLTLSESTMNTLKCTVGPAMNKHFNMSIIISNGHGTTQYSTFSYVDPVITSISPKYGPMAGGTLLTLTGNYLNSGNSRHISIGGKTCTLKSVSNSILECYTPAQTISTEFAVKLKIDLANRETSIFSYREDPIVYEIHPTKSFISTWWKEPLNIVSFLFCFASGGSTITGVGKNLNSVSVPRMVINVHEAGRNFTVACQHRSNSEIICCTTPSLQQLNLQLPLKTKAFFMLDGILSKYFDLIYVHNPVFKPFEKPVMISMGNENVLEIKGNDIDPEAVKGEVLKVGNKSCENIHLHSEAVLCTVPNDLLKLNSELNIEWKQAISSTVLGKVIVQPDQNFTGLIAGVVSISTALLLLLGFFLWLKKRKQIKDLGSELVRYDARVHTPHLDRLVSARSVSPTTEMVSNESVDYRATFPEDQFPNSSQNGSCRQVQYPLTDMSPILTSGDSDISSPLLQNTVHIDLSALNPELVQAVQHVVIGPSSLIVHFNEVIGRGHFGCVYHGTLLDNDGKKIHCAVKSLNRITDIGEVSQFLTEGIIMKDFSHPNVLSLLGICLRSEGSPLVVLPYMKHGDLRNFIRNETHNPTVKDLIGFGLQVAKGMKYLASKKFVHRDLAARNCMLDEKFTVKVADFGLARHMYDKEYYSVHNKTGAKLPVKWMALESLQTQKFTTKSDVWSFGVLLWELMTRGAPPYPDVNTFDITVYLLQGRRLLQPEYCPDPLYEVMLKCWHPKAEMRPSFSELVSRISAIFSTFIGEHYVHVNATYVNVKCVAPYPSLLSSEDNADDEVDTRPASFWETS
T1 sequence (P08581 25-1390): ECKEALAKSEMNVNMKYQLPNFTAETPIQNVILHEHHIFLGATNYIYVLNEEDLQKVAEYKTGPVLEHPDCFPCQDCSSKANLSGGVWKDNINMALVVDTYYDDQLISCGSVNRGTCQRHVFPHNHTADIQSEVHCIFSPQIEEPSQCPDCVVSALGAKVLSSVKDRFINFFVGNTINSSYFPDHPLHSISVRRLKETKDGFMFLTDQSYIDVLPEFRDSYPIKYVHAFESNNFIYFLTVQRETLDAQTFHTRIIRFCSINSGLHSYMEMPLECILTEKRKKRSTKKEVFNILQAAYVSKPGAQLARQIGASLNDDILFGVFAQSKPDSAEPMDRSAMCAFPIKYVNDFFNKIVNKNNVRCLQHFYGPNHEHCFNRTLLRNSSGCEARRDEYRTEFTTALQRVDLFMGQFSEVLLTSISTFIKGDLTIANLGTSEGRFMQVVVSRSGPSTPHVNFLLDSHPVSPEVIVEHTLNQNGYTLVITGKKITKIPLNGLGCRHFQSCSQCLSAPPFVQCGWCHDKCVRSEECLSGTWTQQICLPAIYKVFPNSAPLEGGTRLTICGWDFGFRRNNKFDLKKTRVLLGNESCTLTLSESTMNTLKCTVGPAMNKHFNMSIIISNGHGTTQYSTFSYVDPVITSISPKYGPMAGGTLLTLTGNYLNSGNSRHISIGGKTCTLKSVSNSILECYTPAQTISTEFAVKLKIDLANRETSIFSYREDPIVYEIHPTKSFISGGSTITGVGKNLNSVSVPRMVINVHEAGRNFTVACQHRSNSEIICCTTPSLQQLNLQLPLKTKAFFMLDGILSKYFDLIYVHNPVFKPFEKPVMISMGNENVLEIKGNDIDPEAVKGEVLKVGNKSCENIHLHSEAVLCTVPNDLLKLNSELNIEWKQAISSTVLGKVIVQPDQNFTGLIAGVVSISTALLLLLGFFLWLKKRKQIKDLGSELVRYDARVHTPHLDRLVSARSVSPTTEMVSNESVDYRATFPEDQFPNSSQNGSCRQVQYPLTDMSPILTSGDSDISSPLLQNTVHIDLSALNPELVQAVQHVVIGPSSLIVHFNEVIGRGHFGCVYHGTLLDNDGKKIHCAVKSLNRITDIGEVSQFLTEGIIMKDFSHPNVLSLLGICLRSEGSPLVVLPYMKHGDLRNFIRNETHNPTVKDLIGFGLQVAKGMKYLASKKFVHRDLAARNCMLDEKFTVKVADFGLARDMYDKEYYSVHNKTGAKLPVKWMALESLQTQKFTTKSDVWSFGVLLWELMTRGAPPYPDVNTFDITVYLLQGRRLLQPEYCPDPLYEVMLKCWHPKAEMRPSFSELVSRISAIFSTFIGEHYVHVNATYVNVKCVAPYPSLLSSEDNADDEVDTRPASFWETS
T3 sequence (P08581 25-1390): as above

Row | Structure (SMILES) | Fold potency decrease versus Example 1, MET (D1246H) Mutant (MET (D1246H) Mutant) | Fold potency decrease versus Example 2, MET (D1246H) Mutant (MET (D1246H) Mutant) | Fold potency decrease versus Example 1, MET (Y1248H) Mutant (MET (Y1248H) Mutant) | Fold potency decrease versus Example 2, MET (Y1248H) Mutant (MET (Y1248H) Mutant) | Fold potency decrease versus Example 1, EBC-1 p-MET ([1]; relative to Example 1 = 1) | Fold potency decrease versus Example 2, EBC-1 p-MET ([1]; relative to Example 2 = 1) | Fold potency decrease versus Example 1, cMET WT [2] | Fold potency decrease versus Example 2, cMET WT [2] | Fold potency decrease versus Example 1, MET (Y1248C) Mutant (MET (Y1248C) Mutant) | Fold potency decrease versus Example 2, MET (Y1248C) Mutant (MET (Y1248C) Mutant) | Fold potency decrease versus Example 1, MKN-45 p-MET ([3]; relative to Example 1 = 1) | Fold potency decrease versus Example 2, MKN-45 p-MET ([3]; relative to Example 2 = 1) | Fold potency decrease versus Example 1, A549 MIG (A549 cells; relative to Example 1 = 1) | Fold potency decrease versus Example 2, A549 MIG (A549 cells; relative to Example 2 = 1) | Fold potency decrease versus Example 1, MET (D1246N) Mutant (MET (D1246N) Mutant) | Fold potency decrease versus Example 2, MET (D1246N) Mutant (MET (D1246N) Mutant) | Fold less potent than Example 1 in the various oncogenic Mutant MET kinase biochemical assays [4] | Fold less potent than Example 2 in the various oncogenic Mutant MET kinase biochemical assays [4] | also measured
1 | CCOc1ccn(-c2ccc(F)cc2)c(=O)c1C(=O)Nc1cc(F)c(Oc2ccnc(N)c2)cc1F [Compound A, N-(4-((2-aminopyridin-4-yl)oxy)-2,5-difluorophenyl)-4-ethoxy-1-(4-fluorophenyl)-2-oxo-1,2-dihydropyridine-3-carboxamide] | 6.7× | 4× | 2.6× | 18.3× | 11.7 × | 21.5 × | 2.4 × | 2.7 × | 6× | 5.7× | 18.8 × | 18.8 × | 3.4 × | 8.9 × | 4.4× | 5.7× | 2.6-6.7 × | 4-18.3 × | 
2 | CCOc1ccn(-c2ccc(F)cc2)c(=O)c1C(=O)Nc1cc(F)c(Oc2ccnc(NC(C)=O)c2)cc1F [Example 1, N-(4-((2-acetamidopyridin-4-yl)oxy)-2,5-difluorophenyl)-4-ethoxy-1-(4-fluorophenyl)-2-oxo-1,2-dihydropyridine-3-carboxamide] | 1 × |  | 1 × |  | 1 × |  | 1 × |  | 1 × |  | 1 × |  | 1 × |  | 1 × |  |  |  | 
3 | CCOc1ccn(-c2ccc(F)cc2)c(=O)c1C(=O)Nc1cc(F)c(Oc2ccnc(NC(=O)CC)c2)cc1F [Example 2, N-(2,5-difluoro-4-((2-propionamidopyridin-4-yl)oxy)phenyl)-4-ethoxy-1-(4-fluorophenyl)-2-oxo-1,2-dihydropyridine-3-carboxamide] |  | 1 × |  | 1 × |  | 1 × |  | 1 × |  | 1 × |  | 1 × |  | 1 × |  | 1 × |  |  | 
4 | CCOc1ccn(-c2ccc(F)cc2)c(=O)c1C(=O)Nc1ccc(Oc2ccnc(N)c2Cl)c(F)c1 [The ′229 Compound] | 8.5× | 5.1× | 2.3× | 15.7× | 22.5× | 41.5× | 3.9× | 4.4× | 3.8× | 3.6× | 73.8× | 73.7× | 2.4× | 6.3× | 2× | 2.5× | 2.3-8.5 × | 2.5-15.7 × | Fold potency decrease versus Example 1, EBC-1 p-MET [1, 5]: 22.5 ×; Fold potency decrease versus Example 2, EBC-1 p-MET [1, 6]: 41.5 ×; Fold potency decrease versus Example 1, cMET WT ([2]; listed as the '229 Compound): 3.9 ×; Fold potency decrease versus Example 2, cMET WT ([2]; listed as the '229 Compound): 4.4 ×; Fold potency decrease versus Example 1, MKN-45 p-MET [3, 5]: 73.8 ×; Fold potency decrease versus Example 2, MKN-45 p-MET [3, 6]: 73.7 ×; Fold potency decrease versus Example 1, A549 MIG (A549 cells; [5]): 2.4 ×; Fold potency decrease versus Example 2, A549 MIG (A549 cells; [6]): 6.3 ×

— US9387202B2, “Pyridone amides and analogs exhibiting anti-cancer and anti-proliferative activities” (priority 2011, dated 2016)
